# PMC9837035 (Nature Communications, 2023)
# pIC50: −log10 of the molar value. Several values for one entry are separate records, joined by “and”; a condition that tells them apart may be missing. Identical values can stand only once.
# What was measured:
# H3K9me2 in HUDEP-2 cells = test: Western blotting of H3K9me2 in HUDEP-2 cells; assay type: cell-based, human; settings: HUDEP-2, 4 days
# Experimental: Preparation of cell lysates and western blotting were performed as described previously. Protein from cells lysates in lysis buffer (50 mM Tris-HCl (pH 7.5), 150 mM NaCl, 5 mM EDTA, 0.1% NP-40, 1 mM dithiothreitol) were separated by sodium dodecyl sulfate–polyacrylamide gel electrophoresis (SDS-PAGE) and transferred to a polyvinylidene difluoride (PVDF) membrane (Millipore) by electroblotting. The membranes incubated with primary antibodies overnight at 4 °C and secondary antibodies for 1 h at room temperature. The immune complexes were detected with the Immobilon Western Chemiluminescent HRP Substrate (Millipore). Luminescence was analyzed on a FUSION SOLO S (Vilber). Western blot bands were visualized using Evolution Capt software (M&S Instruments Inc.). Primary antibodies used were anti-G9a (1:1000, CST, #3306), anti–α-tubulin (1:5000, Abcam, ab18251), anti-H3K9me2 (1:3000, Abcam, ab1220), anti-H3 (1:5000, Abcam, ab1791), anti-H3K27me3 (1:3000, Sigma, 07-449), anti-GLP (1:1000, CST, #35005), anti-FLAG (100 ng/ml, Fujifilm, 01422383), anti-His (1:5000, MBL, PM032), anti-BCL11A (1:1000, abcam, ab19487), anti-ZBTB7A (1:1000, CST, #50565), anti-CHD3 (1:1000, Novus Biologicals, NB100-60412), and anti-CHD4 (1:1000, abcam, ab240640). Uncropped scans of all of the blots are available in Source Data file.
# [1] = test system: β- and γ-globin genes in HUDEP-2 cells; test: RT-qPCR of β- and γ-globin in HUDEP-2 cells; assay type: cell-based, human; settings: for β-globin expression in HUDEP-2 cells / γ-globin expression in HUDEP-2 cells: relative to DMSO = 1, replicate values
# Experimental: (§1) Total cellular RNA was prepared using the Tissue Total RNA Mini Kit (FAVORGEN), and cDNA was synthesized using ReverTra Ace Master Mix (TOYOBO). Expression of target genes was analyzed using THUNDERBIRD SYBR qPCR Mix (TOYOBO) on a CFX Connect Real Time System (Bio-Rad). The qPCR data were acquired on CFX Maestro (Bio-Rad). Primers are listed in Supplementary Table 10. GAPDH was used as a reference. Primers were purchased from INTEGRATED DNA TECHNOLOGIES or FASMAC.
# [2] = test system: BGLT3 RNA in HUDEP-2 cells; test: RT-qPCR of BGLT3 in HUDEP-2 cells; assay type: cell-based, human; settings: for BGLT3 expression in HUDEP-2 cells: relative to DMSO = 1, replicate values
# Experimental: as §1
# HUDEP-2 cells = test: Cell viability assay (WST-8), HUDEP-2; assay type: cell-based, human
# Experimental: A WST-8 (2-(2-methoxy-4-nitrophenyl)-3-(4-nitrophenyl)-5-(2,4-disulfophenyl)-2H-tetrazolium) assay using a Cell Counting Kit-8 (DOJINDO) was performed to measure cell viability using an EnSpire microplate reader (PerkinElmer).
# ASH1L = target: T1, ASH1L (Homo sapiens, UniProt Q9NR48); test: Radioisotope-based methyltransferase assay (selectivity); assay type: biochemical; settings: IC50, ASH1L
# T1 construct: purchased Reaction Biology
# NSD3 = target: T2, NSD3 (Homo sapiens, UniProt Q9BZ95); test: as above; assay type: biochemical
# T2 construct: purchased Reaction Biology
# T2 sequence (Q9BZ95 1-1437): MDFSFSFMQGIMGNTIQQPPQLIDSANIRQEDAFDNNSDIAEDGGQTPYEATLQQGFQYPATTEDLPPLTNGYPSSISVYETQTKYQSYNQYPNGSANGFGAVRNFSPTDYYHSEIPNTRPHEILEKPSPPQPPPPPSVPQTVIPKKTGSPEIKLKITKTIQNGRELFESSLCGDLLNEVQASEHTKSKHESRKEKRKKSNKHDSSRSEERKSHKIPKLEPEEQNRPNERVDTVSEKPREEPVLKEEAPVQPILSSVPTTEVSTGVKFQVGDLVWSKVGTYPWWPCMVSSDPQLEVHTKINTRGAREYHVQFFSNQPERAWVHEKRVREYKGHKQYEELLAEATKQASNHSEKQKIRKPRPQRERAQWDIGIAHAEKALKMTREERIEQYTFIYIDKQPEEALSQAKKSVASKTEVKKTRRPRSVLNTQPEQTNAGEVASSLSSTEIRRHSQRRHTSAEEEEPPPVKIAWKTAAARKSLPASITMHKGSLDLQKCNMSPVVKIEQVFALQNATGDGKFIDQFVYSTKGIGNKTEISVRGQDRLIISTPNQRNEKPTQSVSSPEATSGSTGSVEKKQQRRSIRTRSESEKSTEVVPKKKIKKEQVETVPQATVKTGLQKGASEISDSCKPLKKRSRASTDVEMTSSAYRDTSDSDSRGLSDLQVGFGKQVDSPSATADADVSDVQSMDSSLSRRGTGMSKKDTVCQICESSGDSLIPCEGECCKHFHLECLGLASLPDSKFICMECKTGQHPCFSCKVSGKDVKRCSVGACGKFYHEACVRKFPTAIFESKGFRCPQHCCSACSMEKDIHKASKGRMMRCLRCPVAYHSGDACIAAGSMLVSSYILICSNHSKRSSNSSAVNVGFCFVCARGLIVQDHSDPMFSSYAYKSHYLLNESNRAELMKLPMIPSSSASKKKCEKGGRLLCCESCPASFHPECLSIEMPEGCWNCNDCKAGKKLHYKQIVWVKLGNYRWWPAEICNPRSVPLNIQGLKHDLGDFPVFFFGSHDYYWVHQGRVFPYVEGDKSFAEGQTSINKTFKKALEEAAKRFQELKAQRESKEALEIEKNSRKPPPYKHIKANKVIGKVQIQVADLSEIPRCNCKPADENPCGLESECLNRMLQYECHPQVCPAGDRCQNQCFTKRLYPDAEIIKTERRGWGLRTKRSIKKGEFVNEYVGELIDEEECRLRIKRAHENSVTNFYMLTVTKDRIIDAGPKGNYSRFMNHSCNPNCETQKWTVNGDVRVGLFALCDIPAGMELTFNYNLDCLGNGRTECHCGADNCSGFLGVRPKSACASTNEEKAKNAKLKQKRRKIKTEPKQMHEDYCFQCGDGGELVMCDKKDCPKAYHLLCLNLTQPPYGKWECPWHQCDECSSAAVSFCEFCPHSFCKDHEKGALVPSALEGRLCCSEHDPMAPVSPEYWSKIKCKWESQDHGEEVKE
# PRDM9 = target: T3, PRDM9 (Homo sapiens, UniProt Q9NQV7); test: as above; assay type: biochemical
# T3 construct: purchased Reaction Biology
# T3 sequence (Q9NQV7 whole entry): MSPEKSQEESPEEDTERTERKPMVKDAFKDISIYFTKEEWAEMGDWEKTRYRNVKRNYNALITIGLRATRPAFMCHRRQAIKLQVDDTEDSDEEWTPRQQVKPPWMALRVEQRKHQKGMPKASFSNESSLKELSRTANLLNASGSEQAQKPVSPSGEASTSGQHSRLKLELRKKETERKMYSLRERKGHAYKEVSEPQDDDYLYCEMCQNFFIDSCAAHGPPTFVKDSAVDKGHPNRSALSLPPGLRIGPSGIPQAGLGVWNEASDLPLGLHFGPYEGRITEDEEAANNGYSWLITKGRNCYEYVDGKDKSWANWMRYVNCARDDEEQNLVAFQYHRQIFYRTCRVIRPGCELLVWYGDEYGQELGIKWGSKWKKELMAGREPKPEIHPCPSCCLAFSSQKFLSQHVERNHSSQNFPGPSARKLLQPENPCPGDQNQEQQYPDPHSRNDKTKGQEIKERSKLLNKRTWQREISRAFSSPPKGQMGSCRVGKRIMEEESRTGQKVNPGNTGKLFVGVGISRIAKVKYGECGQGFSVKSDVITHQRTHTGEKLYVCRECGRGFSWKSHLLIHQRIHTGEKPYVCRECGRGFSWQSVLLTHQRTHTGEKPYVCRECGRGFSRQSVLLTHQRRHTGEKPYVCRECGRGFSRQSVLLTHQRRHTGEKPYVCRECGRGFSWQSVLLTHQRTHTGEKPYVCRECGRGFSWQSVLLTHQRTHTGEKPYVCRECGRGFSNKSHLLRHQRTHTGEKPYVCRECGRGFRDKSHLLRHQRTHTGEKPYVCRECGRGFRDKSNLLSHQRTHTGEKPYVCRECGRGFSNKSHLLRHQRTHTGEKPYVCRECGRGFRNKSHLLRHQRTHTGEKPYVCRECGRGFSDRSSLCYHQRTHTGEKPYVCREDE
smiles,measurement,setting,value
COc1cc2c(NC3CCN(C)CC3)cc(-c3ccc(C)o3)nc2cc1OCCCN1CCCC1 [CM-272],cellular H3K9me2 levels,H3K9me2 in HUDEP-2 cells,reduction of H3K9me2 levels
same,β-globin expression in HUDEP-2 cells,[1]; 0.01 μM,1.0071 and 1.036 and 1.465
same,γ-globin expression in HUDEP-2 cells,[1]; 0.01 μM,1.193 and 1.0465 and 1.534
same,β-globin expression in HUDEP-2 cells,[1]; 0.03 μM,0.9553 and 1.237 and 1.08
same,γ-globin expression in HUDEP-2 cells,[1]; 0.03 μM,1.464 and 1.528 and 1.418
same,β-globin expression in HUDEP-2 cells,[1]; 0.1 μM,1.5931 and 1.663 and 1.768
same,γ-globin expression in HUDEP-2 cells,[1]; 0.1 μM,5.304 and 3.7722 and 4.868
same,β-globin expression in HUDEP-2 cells,[1]; 0.3 μM,1.078 and 1.725 and 1.22
same,γ-globin expression in HUDEP-2 cells,[1]; 0.3 μM,5.583 and 7.681 and 5.641
same,β-globin expression in HUDEP-2 cells,[1]; 1 μM,1.093 and 1.321 and 1.148
same,γ-globin expression in HUDEP-2 cells,[1]; 1 μM,3.245 and 3.178 and 3.329
same,γ-globin mRNA level,[1]; HUDEP-2,induced the expression of both BGLT3 and γ-globin
same,BGLT3 expression in HUDEP-2 cells,[2]; 0.01 μM,1.264 and 1.918 and 0.9309
same,BGLT3 expression in HUDEP-2 cells,[2]; 0.03 μM,0.9121 and 1.179 and 0.9824
same,BGLT3 expression in HUDEP-2 cells,[2]; 0.1 μM,0.6878 and 0.8395 and 1.055
same,BGLT3 expression in HUDEP-2 cells,[2]; 0.3 μM,4.167 and 3.251 and 2.85
same,BGLT3 expression in HUDEP-2 cells,[2]; 1 μM,9.88 and 9.285 and 7.11
same,BGLT3 expression,[2]; HUDEP-2,induced the expression of both BGLT3 and γ-globin
same,cell viability in HUDEP-2 cells,"HUDEP-2 cells; 0.123457 μM, control (0 μM) = 100",108.704 and 95.321 and 98.9654
same,cytotoxic effect on viability,"HUDEP-2 cells; HUDEP-2, 3 days",severe cell toxicity
"CN1C(=O)[C@@]23C[C@]4([C@]56C[C@@]78SS[C@@](CO)(C(=O)N7[C@H]5Nc5ccccc56)N(C)C8=O)c5ccccc5N[C@@H]4N2C(=O)[C@]1(CO)SS3 [Chaetocin, reference compound]",pIC50,ASH1L; 1 μM SAM,7.03
same,pIC50,ASH1L; RK-701 in duplicate,7.03
same,pIC50,"NSD3; IC50, NSD3, 1 μM SAM",6.82
same,pIC50,"NSD3; IC50, NSD3, RK-701 in duplicate",6.82
same,pIC50,"PRDM9; IC50, PRDM9, 1 μM SAM",4.87
same,pIC50,"PRDM9; IC50, PRDM9, RK-701 in duplicate",4.87
